In general, pIC50 refers to −log10 of the IC50, conventionally taken in molar units. By melting point is commonly meant the temperature, or range, at which the solid turns liquid. As a reminder, the t½ is the time in which the quantity being followed falls by half. A high value points to slow loss. The half-life is how long it takes for the measured level to halve. A lower half-life goes with fast loss.

The structures appear in SMILES notation. pIC50: −log10 of the molar value. Where two headings read alike, the source gives them in different places. Where a SMILES comes first, the peptide text is derived from it. [ ]: non-standard residue; d: D form. The star is where a group is joined. NH(CH2)3NH(1-anthraquinonyl) = O=C1c2ccccc2C(=O)c2c(NCCCN*)cccc21

In one data set the target is T1, topo I (Homo sapiens, UniProt P11387).
T1 sequence (P11387 1-765): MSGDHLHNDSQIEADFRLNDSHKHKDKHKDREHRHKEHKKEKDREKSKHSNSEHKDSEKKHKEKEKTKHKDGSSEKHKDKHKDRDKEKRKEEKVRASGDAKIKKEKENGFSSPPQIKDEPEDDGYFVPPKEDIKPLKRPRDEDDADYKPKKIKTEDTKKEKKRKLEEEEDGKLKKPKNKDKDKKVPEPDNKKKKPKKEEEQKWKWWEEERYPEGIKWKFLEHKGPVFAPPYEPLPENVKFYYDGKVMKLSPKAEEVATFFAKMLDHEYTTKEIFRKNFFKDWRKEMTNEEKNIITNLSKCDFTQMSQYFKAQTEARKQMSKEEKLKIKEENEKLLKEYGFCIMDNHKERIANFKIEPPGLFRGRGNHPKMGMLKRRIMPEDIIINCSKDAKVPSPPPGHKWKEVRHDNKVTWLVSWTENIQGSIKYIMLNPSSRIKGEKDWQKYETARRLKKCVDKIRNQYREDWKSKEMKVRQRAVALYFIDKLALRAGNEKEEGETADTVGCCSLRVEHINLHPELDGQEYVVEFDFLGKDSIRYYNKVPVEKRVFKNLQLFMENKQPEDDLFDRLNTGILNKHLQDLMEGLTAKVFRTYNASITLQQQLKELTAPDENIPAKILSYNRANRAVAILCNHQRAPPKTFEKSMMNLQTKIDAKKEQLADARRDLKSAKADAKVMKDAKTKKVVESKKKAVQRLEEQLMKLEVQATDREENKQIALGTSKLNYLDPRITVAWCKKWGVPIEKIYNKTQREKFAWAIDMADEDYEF
Kind of data set: Inhibition of topo I-mediated relaxation of pBR322 DNA. The format is biochemical. The following applies: for LEVEL OF INHIBITION of topo I-mediated relaxation pBR322 DNA: tested between 1-100 μM. How it is done: Neither example (8) [NU:UB187] (heptapeptide) nor its hexa-, penta-, or tetra-peptide metabolites {examples (7) [NU:UB 205], (6) [NU:UB 204] and (5) [NU:UB 186] respectively} inhibited the topo I- mediated relaxation of pBR322 DNA at concentrations up to 100 μM. […] (the preferred MMP-2 cleavage product of example (8) [NU:UB187] The topo I activities of example (2) [NU:UB 31] and example (1b) [NU:UB 197] bad previously been determined [Table 1].

The test system of data set [1] is MAC15A adenocarcinoma of the colon. The data set is described as follows: In vitro cytotoxicity against MAC15A adenocarcinoma of the colon, 96 hours exposure. The format is cell-based.
In a further data set the test system is MAC15A. Kind of data set: In vitro cytotoxicity, MAC15A, 1 hour exposure. The format is cell-based. To be noted: for % cells remaining: 1 × 10^4 cells/ml.
The nature of data set [2]: Stability in murine whole blood and mouse plasma. The format is in vitro ADME.
Data set [3] deals with calf thymus DNA. Kind of data set: Fluorescence quenching, Ethidium Bromide displacement from calf thymus DNA. The format is binding. The following applies: calf thymus DNA.
In data set [4] the test system is calf thymus DNA. The data set is described as follows: Fluorescence quenching, Hoechst Dye 33258 displacement from calf thymus DNA. The format is binding. The following applies: calf thymus DNA.
Data set [5] in a line: In vitro tumour incubations: metabolism by dilute HT1080 tumour homogenate (HPLC). The format is in vitro ADME. To be noted: dilute HT1080 tumour homogenate (1:500). How it is done:
Separation was achieved using gradient reversed phase HPLC On a Lichrospher (25×4 mm) column.
Mobile phase A consisted of 10% acetonitrile: 90% TFA (0.05%) and mobile phase B of 60% acetonitrile: 40% TFA (0.05%). Optimum detection was at the λmax of 248 nm using a flow rate of 1.2 ml/min. The gradient profile was from 60% A to 5% A over 25 min.
Sample preparation for HPLC was by simple protein precipitation. 3 vols. of methanol were added to 1 vol. of sample (typically 100 μl) which was centrifuged at 3000 g for 5 min. The supernatant was injected directly onto the HPLC column.
In Vitro Tumour Incubations
Solid tumour (HTT1080—excised from NCI-Nu mice under a Home Office Licence) was homogenised (1:4) in MMP buffer. Tumour homogenates were incubated at 25° C. and compounds (drugs) were added to the homogenate to give a final concentration of 10 μM or 100 μM. Samples were taken at timed intervals and prepared for HPLC analysis as described above.
Where metabolism was so rapid tumour homogenates required dilution (to 1:500) before analysis.

Turning to `CC(C)C[C@H](N)C(=O)N1CCC[C@H]1C(=O)NCCCNc1cccc2c1C(=O)c1ccccc1C2=O.O=C(O)C(F)(F)F` [example (3)], on topo I, the “inhibition of topo I-mediated relaxation, in words” value is “Greatest inhibitory activity”.

`CC(C)C[C@H](N)C(=O)N1CCC[C@H]1C(=O)NCCCNc1cccc2c1C(=O)c1ccccc1C2=O.O=C(O)C(F)(F)F` [Example 3, 1-[3-(L-Leucyl-L-prolylamino)propylamino]anthraquinone trifluoroacetate]: the melting point is 126 °C. In data set [1] (Mus musculus, 96 h), the pIC50 is 5.70. Also, the “LEVEL OF INHIBITION of topo I-mediated relaxation pBR322 DNA” value (shortened to “LEVEL OF INHIBITION”) at topo I is “Complete inhibition of relaxation at 5 μM”. Also, in the data set on MAC15A (1 μM), the “% cells remaining” value came out at 80%. Moreover, in the data set on MAC15A (10 μM), the “% cells remaining” value came out at 58%. Besides, the “% cells remaining” value in the data set with MAC15A (100 μM) is 1%. In addition, the pIC50 in the data set with MAC15A (Mus musculus) was 4.85.

Consider `CC(C)C[C@H](NC(=O)CN)C(=O)N1CCC[C@H]1C(=O)NCCCNc1cccc2c1C(=O)c1ccccc1C2=O.O=C(O)C(F)(F)F` [example (4)], for which the “inhibition of topo I-mediated relaxation, in words” value against topo I was “weakly inhibited relaxation at 50 μM”.

Regarding `NCCCNc1cccc2c1C(=O)c1ccccc1C2=O.O=C(O)C(F)(F)F` [Example 1b, 1-[(3-Aminopropyl)amino]anthraquinone trifluoroacetate], the “LEVEL OF INHIBITION” value on topo I is “Complete inhibition of relaxation at 25 μM”. Further, the “% cells remaining” value came out at 90% in the data set with MAC15A (1 μM), 100% in the data set on MAC15A (10 μM) and 5% in the data set with MAC15A (100 μM). The pIC50 in the data set with MAC15A (Mus musculus) is 4.48.

For the compound `CC(C)C[C@H](NC(=O)[C@H](C)NC(=O)[C@H](C)NC(=O)[C@@H](C)N)C(=O)NCC(=O)N[C@@H](CC(C)C)C(=O)N1CCC[C@H]1C(=O)NCCCNc1cccc2c1C(=O)c1ccccc1C2=O.O=C(O)C(F)(F)F` [example (8)] (H-[dA]AALGLP-{NH(CH2)3NH(1-anthraquinonyl)}), the t½ in data set [2] (mouse plasma at 37° C.) was greater than 13 h. Further, in data set [2] (murine whole blood), the half-life was determined as 1.46 h.

`CC(C)C[C@H](NC(=O)CN)C(=O)N1CCC[C@H]1C(=O)NCCCNc1cccc2c1C(=O)c1ccccc1C2=O.O=C(O)C(F)(F)F` [Example 4, 1-[3-(Glycyl-L-leucyl-L-prolylamino)propylamino]anthraquinone trifluoroacetate]: the melting point fell in the range of 144 to 148 °C. On topo I, the “LEVEL OF INHIBITION” value is “Partial inhibition of relaxation at 50 μM”. Also, in the data set with MAC15A (1 μM), the “% cells remaining” value was 91%. Moreover, the “% cells remaining” value in the data set with MAC15A (10 μM) stood at 55%. Moreover, in the data set on MAC15A (100 μM), the “% cells remaining” value is 0%. In the data set on MAC15A (Mus musculus), this compound gave a pIC50 of 4.89.

`CC(C)C[C@H](NC(=O)CNC(=O)[C@@H](N)CC(C)C)C(=O)N1CCC[C@H]1C(=O)NCCCNc1cccc2c1C(=O)c1ccccc1C2=O.O=C(O)C(F)(F)F` [Example 5, 1-[3-(L-Leucyl-glycyl-L-leucyl-L-prolylamino)propylamino]-anthraquinone trifluoroacetate] (H-LGLP-{NH(CH2)3NH(1-anthraquinonyl)}) showed a melting point of 144 °C. In addition, at topo I, the “LEVEL OF INHIBITION” value is given as “No inhibition of relaxation between 1-100 μM”. For the same compound, the “% cells remaining” value in the data set with MAC15A (1 μM) is given as 89%. Also, the “% cells remaining” value in the data set with MAC15A (10 μM) turned out to be 100%. For the same compound, in the data set with MAC15A (100 μM), the “% cells remaining” value stood at 0%. In addition, the pIC50 in the data set with MAC15A (Mus musculus) was 4.52.

As to `O=C(O)C(F)(F)F.O=C1c2ccccc2C(=O)c2c(NCCCNC(=O)[C@@H]3CCCN3)cccc21` [Example 2, 1-[3-(L-Propylamino)propylamino]anthraquinone trifluoroacetate], the “QE50 (Ethidium Bromide displacement)” value with calf thymus DNA [3] is 2 µM. The pIC50 in data set [1] (exposure time 96 hours, read-out: IC50) is 5.37; in the data set on MAC15A, 5.30. For the same compound, the “LEVEL OF INHIBITION” value at topo I is reported as “Complete inhibition of relaxation at 25 μM”. The “QH50 (Hoechst Dye 33258 displacement)” value in the data set on calf thymus DNA [4] was determined as 0.6 µM. Also, the “% cells remaining” value in the data set with MAC15A (1 μM) turned out to be 100%; in the data set on MAC15A (10 μM), 30%; in the data set with MAC15A (100 μM), 0%.

As for `CC(C)C[C@H](NC(=O)[C@H](C)NC(=O)[C@H](C)N)C(=O)NCC(=O)N[C@@H](CC(C)C)C(=O)N1CCC[C@H]1C(=O)NCCCNc1cccc2c1C(=O)c1ccccc1C2=O.O=C(O)C(F)(F)F` [Example 7, 1-[3-(L-Alanyl-L-alanyl-L-leucyl-glycyl-L-leucyl-L-prolylamino)-propylamino]anthraquinone trifluoroacetate], the melting point was found to be 132 °C. For the same compound, the “LEVEL OF INHIBITION” value at topo I is “No inhibition of relaxation between 1-100 μM”.

`CC(C)C[C@H](NC(=O)[C@H](C)NC(=O)[C@H](C)N)C(=O)NCC(=O)N[C@@H](CC(C)C)C(=O)N1CCC[C@@H]1C(=O)NCCCNc1cccc2c1C(=O)c1ccccc1C2=O.O=C(O)C(F)(F)F` [Example 14, 1-[3-(L-Alanyl-L-alanyl-L-leucyl-glycyl-L-leucyl-D-prolylamino)-propylamino]anthraquinone trifluoroacetate] returned a melting point of 132 °C. The pIC50 in data set [1] (Mus musculus, exposure time 96 hours, read-out: IC50) is 4.42.

Compound `CC(C)C[C@H](NC(=O)[C@H](C)N)C(=O)NCC(=O)N[C@@H](CC(C)C)C(=O)N1CCC[C@H]1C(=O)NCCCNc1cccc2c1C(=O)c1ccccc1C2=O.O=C(O)C(F)(F)F` [Example 6, 1-[3-(L-Alanyl-L-leucyl-glycyl-L-leucyl-L-prolylamino)propylamino]-anthraquinone trifluoroacetate] came in with a melting point of 168 °C. Further, the “LEVEL OF INHIBITION” value at topo I was “No inhibition of relaxation between 1-100 μM”.

For `CC(C)C[C@H](NC(=O)[C@H](C)NC(=O)[C@H](C)NC(=O)[C@@H](C)N)C(=O)NCC(=O)N[C@@H](CC(C)C)C(=O)N1CCC[C@@H]1C(=O)NCCCNc1cccc2c1C(=O)c1ccccc1C2=O.O=C(O)C(F)(F)F` [example (15)] (H-[dA]AALGL[dP]-{NH(CH2)3NH(1-anthraquinonyl)}), in data set [5], the “major products / metabolite” value was “the expected cleavage product example (11) [NU:UB 224]” and the rate of metabolism is given as 2.5 μmol/min/g tissue.

The values above are taken from patent US20040248765A1, “Tumour targeting prodrugs activated by metallo matrixproteinases” (priority 2001, published 2004).
